Test results published in PMC8424629, “Chemical “Butterfly Effect” Explaining the Coordination Chemistry and Antimicrobial Properties of Clavanin Complexes” (Inorganic Chemistry, 2021).
Converted amounts (≈) assume the structure as drawn. Where two headings read alike, the source gives them in different places.

Columns and labels:
[1] = tested on: Pseudomonas aeruginosa ATCC 27853; assay: MIC, broth microdilution, reference strain; format: cell-based; details: ATCC27853, microdilution 0.5-256 µg/mL, TSB, 24 h, 37 °C, OD 580 nm
[2] = tested on: Enterococcus faecalis ATCC 29212; assay: microbe, parasite or virus in culture; details: ATCC29212, 24 h
[3] = tested on: MRSA Staphylococcus aureus ATCC 43300; assay: microbe, parasite or virus in culture; details: 24 h
[4] = tested on: Candida albicans ATCC 10231; assay: microbe, parasite or virus in culture; details: ATCC10231, 24 h
[5] = tested on: Escherichia coli ATCC 25922; assay: microbe, parasite or virus in culture; details: ATCC25922, 24 h
[6] = format: physicochemical; details: for log β H2L / log β H3L / log β H4L / log β H5L / log β H6L / log β HL: potentiometry pH 2-11, 298 K, 4 mM HClO4, I = 40 mM SDS, ligand 0.5 mM, SD in parentheses
Method: (§1) All peptides ([…]-COOH, […]-COOH, […]
(§2) were purchased from KareBay Biochem (USA) (certified purity: 98 %) and were used as received.
(§3) The carbonate-free stock solutions of 0.1 M NaOH were purchased from Sigma-Aldrich and then potentiometrically standardized with the primary standard potassium hydrogen phthalate (99.9 % purity). […]
(§4) Stability constants for proton, Zn(II) and Cu(II) complexes were calculated from pH -metric titration curves carried out over the pH range 2-11 at T = 298 K in water solution of 4 mM HClO 4 and ionic strength 40 mM (SDS), using a total volume of 3 ml. The potentiometric titrations were performed using a Metrohm Titrando 905 titrator and a Mettler Toledo InLab Micro comb ined pH electrode. The thermostabilized glass -cell was equipped with a magnetic stirring system, a microburette delivery tube and an inlet –outlet tube for argon.
(§5) Solutions were titrated with 0.1 M carbonate-free NaOH. The electrodes were calibrated daily f or hydrogen ion concentration by titrating HClO 4 with NaOH under the same experimental conditions as above. The purities and the exact concentrations of the ligand solutions were determined by the Gran method. 1 The ligand concentration was 0.5 mM. The Zn(II) and Cu(II) to ligand ratio was 1 : 1.
(§6) The standard potential and the slope of the electrode couple were computed by means of Glee 2 program. The HYPERQUAD 20063 program was used for the stability constant calculations. The standard deviations were computed by HYPERQUAD 2006 and refer to random errors only. The constants for the hydrolytic Zn(II ) species

[7] = format: binding
Method: as §1, §2, §3, §4, §5, §6

[8] = tested on: Enterococcus faecalis ATCC 29212; details: ATCC 29212, 24 h
[9] = tested on: MRSA Staphylococcus aureus ATCC 43300; details: ATCC 43300, 24 h
[10] = tested on: Candida albicans ATCC 10231; details: ATCC 10231, 24 h
[11] = tested on: Escherichia coli ATCC 25922; details: ATCC 25922, 24 h
E. coli = details: literature describes C-amidated clavanins, cited from earlier work
From the text: During the over 20-year study on clavanins (mainly clavanin A), various modes of action were proposed.[15],[18],[19] […] The second is observed at acidic pH (5.5) when clavanin A binds to DNA and disrupts DNA synthesis, similarly to indolicidin.[20] The third mechanism, which also occurs at pH 5.5, is assigned not to the “single” clavanin A but to its Zn(II) complex, which cleav ...

[12] = potentiometry, 298 K, I = 40 mM SDS, Cu(II):L 1:1, 0.5 mM, SD in parentheses
[13] = potentiometry, 298 K, I = 40 mM SDS, Zn(II):L 1:1, 0.5 mM, SD in parentheses

With `C[C@H]1COc2c(N3CCN(C)CC3)c(F)cc3c(=O)c(C(=O)O)cn1c23` [levofloxacin] the MIC [1] was 1 µg/mL (≈ 2.77 µM), the MIC [2] was 4 µg/mL (≈ 11.1 µM) and the MIC [3] was 1 µg/mL (≈ 2.77 µM).
In the case of `C[C@@H]1[C@H](O)[C@@H](C)/C=C/C=C/C=C/C=C/C=C/C=C/C=C/[C@H](O[C@@H]2O[C@H](C)[C@@H](O)[C@H](N)[C@@H]2O)C[C@@H]2O[C@](O)(C[C@@H](O)C[C@@H](O)[C@H](O)CC[C@@H](O)C[C@@H](O)CC(=O)O[C@H]1C)C[C@H](O)[C@H]2C(=O)O` [amphotericin B], the MIC [4] is reported as 1 µg/mL (≈ 1.08 µM).
In the case of `CNC(C)C1CCC(N)C(OC2C(N)CC(N)C(OC3OCC(C)(O)C(NC)C3O)C2O)O1` (stereo not shown) [gentamicin], the MIC [5] is reported as 2 µg/mL (≈ 4.19 µM).
For `CC[C@H](C)[C@H](NC(=O)[C@H](CCCCN)NC(=O)CNC(=O)[C@H](CC(C)C)NC(=O)[C@H](CC(C)C)NC(=O)[C@H](Cc1c[nH]cn1)NC(=O)[C@H](Cc1ccccc1)NC(=O)[C@@H](N)C(C)C)C(=O)N[C@H](C(=O)N[C@@H](Cc1c[nH]cn1)C(=O)N[C@@H](Cc1c[nH]cn1)C(=O)N[C@H](C(=O)NCC(=O)N[C@@H](CC(N)=O)C(=O)N[C@@H](Cc1ccccc1)C(=O)N[C@H](C(=O)N[C@@H](Cc1ccc(O)cc1)C(=O)NCC(=O)N[C@@H](Cc1ccccc1)C(=O)N[C@@H](CO)C(=O)N[C@@H](Cc1c[nH]cn1)C(=O)N[C@H](C(=O)N[C@@H](Cc1ccccc1)C(=O)O)C(C)C)C(C)C)C(C)C)[C@@H](C)CC` [Clavanin C], the “pKa, species H2L” value [6] was 8.87, the “pKa, species H3L” value [6] was 8.08 and the “pKa, species H4L” value [6] was 7.57. The “pKa, species H5L” value [6] was 7.10, the “pKa, species H6L” value [6] was 5.25 and the “pKa, species HL” value [6] was 10.72. The “pKa, line CuH4L” value [7] was 4.99, the “pKa, line CuH-1L” value [7] was 8.09 and the “pKa, line CuH-2L” value [7] was 10.66. For the same compound, the “pKa, line CuHL” value [7] was 6.10, the “pKa, line CuL” value [7] was 6.98 and the MIC [8] was 128 µg/mL (≈ 48 µM). It also gave an MIC [9] of 128 µg/mL (≈ 48 µM) and an MIC [10] of 64 µg/mL (≈ 24 µM).
For “H-AFKLLGRIIHHVGNFVYGFSHVF-OH [Clavanin D]”, the “pKa, species H2L” value [6] was 10.08, the “pKa, species H3L” value [6] was 8.68 and the “pKa, species H4L” value [6] was 7.81. The “pKa, species H5L” value [6] was 7.24, the “pKa, species H6L” value [6] was 5.26 and the “pKa, species HL” value [6] was 11.13. The “log β H2L” value [6] was 21.21 (4), the “log β H3L” value [6] was 29.89 (5) and the “log β H4L” value [6] was 37.70 (5). The “log β H5L” value [6] was 44.94 (5), the “log β H6L” value [6] was 50.20 (5) and the “log β HL” value [6] was 11.13 (6). For the same compound, the “pKa, line CuH2L” value [7] was 6.95, the “pKa, line CuH3L” value [7] was 6.00 and the “pKa, line CuH4L” value [7] was 5.23. For the same compound, the “pKa, line CuH-1L” value [7] was 9.92, the “pKa, line CuH-2L” value [7] was 10.54 and the “pKa, line CuH-3L” value [7] was 11.91. The “pKa, line CuHL” value [7] was 7.94, the “pKa, line CuL” value [7] was 8.79 and the “pKa, line ZnH2L” value [7] was 8.22. The “log β CuH2L” value [7, 12] was 30.38 (2), the “log β CuH3L” value [7, 12] was 37.33 (2) and the “log β CuH4L” value [7, 12] was 43.33 (1). For the same compound, the “log β CuH5L” value [7, 12] was 48.56 (3), the “log β CuH-1L” value [7, 12] was 3.73 (3) and the “log β CuH-2L” value [7, 12] was -6.81 (4). For the same compound, the “log β CuH-3L” value [7, 12] was -18.72 (1), the “log β CuHL” value [7, 12] was 22.44 (3) and the “log β CuL” value [7, 12] was 13.65 (3). The “log β ZnH2L” value [7, 13] was 25.94 (2), the “log β ZnH3L” value [7, 13] was 34.16 (3) and the “log β ZnH5L” value [7, 13] was 47.63 (12). For the same compound, the “log β ZnL” value [7, 13] was 6.73 (14), the MIC [11] was 64 µg/mL and the MIC [8] was 128 µg/mL. For the same compound, the MIC [9] was 128 µg/mL and the MIC [10] was 16 µg/mL.
With “H-VFQFLGKIIHHVGNFVHGFSHVF-OH [Clavanin A]” the “pKa, species H2L” value [6] was 8.88, the “pKa, species H3L” value [6] was 8.09 and the “pKa, species H4L” value [6] was 7.63. The “pKa, species H5L” value [6] was 6.92, the “pKa, species H6L” value [6] was 5.32 and the “pKa, species HL” value [6] was 10.18. The “log β H2L” value [6] was 19.06 (6), the “log β H3L” value [6] was 27.15 (8) and the “log β H4L” value [6] was 34.78 (7). For the same compound, the “log β H5L” value [6] was 41.7 (8), the “log β H6L” value [6] was 47.02 (10) and the “log β HL” value [6] was 10.18 (6). The “pKa, line CuH2L” value [7] was 6.82, the “pKa, line CuH3L” value [7] was 6.01 and the “pKa, line CuH-1L” value [7] was 8.82. The “pKa, line CuH-2L” value [7] was 9.76, the “pKa, line CuH-3L” value [7] was 10.16 and the “pKa, line CuHL” value [7] was 7.56. The “pKa, line CuL” value [7] was 8.36, the “pKa, line ZnH2L” value [7] was 7.15 and the “pKa, line ZnH3L” value [7] was 6.59. For the same compound, the “pKa, line ZnHL” value [7] was 8.53, the “pKa, line ZnL” value [7] was 9.36 and the “log β CuH2L” value [7, 12] was 27.53 (3). For the same compound, the “log β CuH3L” value [7, 12] was 34.35 (2), the “log β CuH4L” value [7, 12] was 40.36 (2) and the “log β CuH-1L” value [7, 12] was 2.79 (3). For the same compound, the “log β CuH-2L” value [7, 12] was -6.97 (3), the “log β CuH-3L” value [7, 12] was -17.13 (3) and the “log β CuHL” value [7, 12] was 19.97 (3). The “log β CuL” value [7, 12] was 11.61 (3), the “log β ZnH2L” value [7, 13] was 23.99 (2) and the “log β ZnH3L” value [7, 13] was 31.14 (3). For the same compound, the “log β ZnH4L” value [7, 13] was 37.74 (12), the “log β ZnHL” value [7, 13] was 15.46 (2) and the “log β ZnL” value [7, 13] was 6.10 (7). The MIC [8] was 256 µg/mL, the MIC [10] was 128 µg/mL and the “minimum inhibitory concentration (MIC)” value (E. coli; pH 5.5, with addition of Zn(II) ions) was 4 µM. For the same compound, the “minimum inhibitory concentration (MIC)” value (E. coli; pH 5.5, without Zn(II)) was 64 µM.
